This is an account of results in publication PMC6505199, “In vitro characterization of odorranalectin for peptide-based drug delivery across the blood–brain barrier” (BMC Neuroscience, 2019).

The subject of one series is hCMEC/D3 cells. Put plainly: Cellular uptake/internalization of FAM-labelled peptide (lysate fluorescence normalized to protein; fluorescence imaging). It is filed as in vitro ADME, human. The note with it: 3 h. How it is done:
All experiments were performed on human brain microvascular endothelial cell line (hCMEC/D3; Millipore Sigma, Massachusetts, US, cat# SCC066), an established and well characterized model of human BBB in vitro [11, 15, 16]. Cells (2.5 × 10^3/cm^2; passages 29–32) were cultured on sterile flasks, 96-well plates (for cell viability) and chamber slides (for immunofluorescence imaging) previously coated with Matrigel in HEPES buffered basal endothelial medium (EBM2) supplemented with various growth factors and 5% FBS using Lonza EGM2 MV BulletKit™ [15]. Following 80–90% confluence, cells were subjected to experimental conditions as listed below with serum concentration reduced to 1% FBS. Culture medium’s composition was adjusted (EBM2 medium buffered with HEPES and 1% BSA with no growth factors) to determine the effects of pH and serum (%; protein binding) on the cellular uptake of FAM-OL peptide. Basic pH was maintained with addition of 1 N sodium hydroxide to the medium, while acidic pH was established by addition of phosphoric acid. Cells were lysed with RIPA buffer at the end of treatment with OL peptide and the florescence intensity was measured using BioTek Synergy2 Multimode microplate reader using cellular lysates from cells treated with 0.1% DMSO as controls at 490/520 nm. […]

For series [1] the following is noted: BSA-conjugated monosaccharides and cell-based assays; relative to L-fucose; cited from earlier work. The text has this: Previous studies reported the potential of lectins as drug carriers to specific sites of action based on their ability to selectively bind to specific sugar moieties of targeted cells. In addition, lectins could promote drug targeting into or across the cell barriers through vesicular transport. […] As also shown in Fig. 4, it is quite evident that the internalized OL is stable at all concentration tested further supporting the notion that this peptide is likely internalized into the cellular endosome but not the lysosomes.

On the set-up of series [2]: method as in PMID 18584053. The note with it: cited from earlier work.
For the next series, the system named is mice. On the set-up: method as in PMID 18584053. The note with it: cited from earlier work.

Turning to odorranalectin [OL], the “Concentration dependence of cellular uptake” value in the series on hCMEC/D3 cells (hCMEC/D3, 10-100 µg/mL, 37 °C, media 1% FBS, 0.1% DMSO, fluorescence imaging / lysate fluorescence 490/520 nm normalized per µg protein (BCA), N = 4-5) was “increased linearly”. Moreover, the “Cellular uptake compared to scramble peptide at identical concentrations” value in the series with hCMEC/D3 cells (hCMEC/D3, 37 °C, 1% FBS, total cell lysate fluorescence normalized per µg protein, side by side, P < 0.01) is on record as “two to threefolds higher”. In series [1], the “Binding to N-acetyl-d-galactosamine” value is listed as “to a lesser degree” and the Binding to galactose entry is reported as “to a lesser degree”. Besides, in series [2], the Immunogenicity result is “low immunogenicity”. Also, in the series with mice, the “Toxicity profile in mice” value is listed as “low toxicity profile”.
